Source: US11559538B2, “Substituted 1,2-oxaborolan-2-ols as PDE4 inhibitors” (Pfizer Inc., priority 2018, dated 2023)

Tests used:
[1] = molecular target: PDE4B (aa 152-484, Uniprot ID Q07343) (Homo sapiens (Human), UniProt Q07343); assay: PDE4 SPA assay (scintillation proximity assay); type: biochemical; settings: read-out: PDE4B2 IC50
Outline: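 PDE4B (aa 152-484, ~81.6 pM) preincubated ~10 min with compound, then 1 μM ³H/unlabeled cAMP added in Tris pH 7.5, 1.3 mM MgCl2, 0.004% Brij 35, ~2% DMSO; 30 min at RT. Product captured on SPA beads and counted; IC50 by four-parameter logistic fit.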

IFNγ = assay: Cytokine assay: IFNγ release from PHA-L stimulated human PBMCs; type: cell-based; settings: Homo sapiens, PBMC
Outline: (§1)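 Thawed human PBMCs (about 250,000 per well) preincubated with compound (about 10 μM down by 4-fold dilution, 0.25% DMSO), then stimulated with 3.5 μg/mL PHA-L for 48 h at 37 °C. IL-4, IL-13 and IFNγ in supernatant measured by HTRF; IC50 from four-parameter logistic fit.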

[2] = In-vitro skin permeation study (Franz cell assay); type: in vitro ADME; settings: N=15 (3 skin donors, 5 replicates per donor)
Procedure: Topical formulations prepared containing Example 4 that were tested for skin permeability and maximum flux of Example 4 are listed in Table 13.
A higher driving force can be achieved via incorporation into the formulations of additional penetration enhancers such as oleyl alcohol.

IL-13 = assay: Cytokine assay: IL-13 release from PHA-L stimulated human PBMCs; type: cell-based; settings: Homo sapiens, PBMC, read-out: IL13 IC50
Outline: as §1

IL-4 = assay: Cytokine assay: IL-4 release from PHA-L stimulated human PBMCs; type: cell-based; settings: Homo sapiens, PBMC, read-out: IL4 IC50
Outline: as §1

[3] = 0.01% Example 4 ointment formulation from Table 13
[4] = 0.1% Example 4 ointment formulation from Table 13
[5] = 1% Example 4 ointment formulation from Table 13

Chain of PDE4B (aa 152-484, Uniprot ID Q07343) (Q07343 324-656): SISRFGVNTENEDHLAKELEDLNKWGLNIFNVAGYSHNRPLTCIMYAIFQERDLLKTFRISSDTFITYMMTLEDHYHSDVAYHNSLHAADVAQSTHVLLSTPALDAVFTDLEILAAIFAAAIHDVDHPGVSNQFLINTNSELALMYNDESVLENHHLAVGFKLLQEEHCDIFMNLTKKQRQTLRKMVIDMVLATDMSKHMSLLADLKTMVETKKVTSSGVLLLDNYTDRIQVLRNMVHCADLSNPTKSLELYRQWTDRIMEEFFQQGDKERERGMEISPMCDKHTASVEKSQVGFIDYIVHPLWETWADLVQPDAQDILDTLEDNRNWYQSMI

Q: For `CCCOc1cc(-c2cncc([C@@H]3COB(O)C3)c2)ccc1OC` [Example 4, (R) 4-(5-(4-methoxy-3-propoxyphenyl)pyridin-3-yl)-1,2-oxaborolan-2-ol], which IC50 [1] is on record?
A: Its IC50 is 0.5 nM.

Q: And the IC50 (IFNγ)?
A: The IC50 was 1.06 nM.

Q: What about the “Mean, Cumulative Amount in 24 hours” value [2, 3] of the same molecule?
A: Its value is 233.0 ng.

Q: And the “Mean, Max. Flux” value [2, 3]?
A: The value was 20.14 ng/cm^2/hr.

Q: What about the “Mean, Cumulative Amount in 24 hours” value [2, 4] of the same molecule?
A: Its value is 1089.9 ng.

Q: What about the “Mean, Max. Flux” value [2, 4] of the same molecule?
A: Its value is 73.95 ng/cm^2/hr.

Q: What about the “Mean, Cumulative Amount in 24 hours” value [2, 5] of the same molecule?
A: The value was 3357.7 ng.

Q: What about the “Mean, Max. Flux” value [2, 5] of the same molecule?
A: The value was 252.28 ng/cm^2/hr.

Q: And the IC50 (IL-13)?
A: The IC50 was 135 nM.

Q: And the IC50 (IL-4)?
A: The IC50 was 4.11 nM.

Q: For `CCOc1ccc(-c2cncc(C3COB(O)C3)c2)c(F)c1OC` (centres unmarked) [Example 217, 4-(5-(4-ethoxy-2-fluoro-3-methoxyphenyl)pyridin-3-yl)-1,2-oxaborolan-2-ol], which IC50 [1] is on record?
A: Its IC50 is 5.5 nM.

Q: What about the IC50 (IFNγ) of the same molecule?
A: Its IC50 is 10.3 nM.

Q: What about the IC50 (IL-13) of the same molecule?
A: The IC50 was 2070 nM.

Q: And the IC50 (IL-4)?
A: Its IC50 is 20.5 nM.

Q: For `CCCOc1cc(-c2cc(C3COB(O)C3)cnc2C)cnc1OC` (centres unmarked) [Example 218, 4-(6′-methoxy-2-methyl-5′-propoxy-[3,3′-bipyridin]-5-yl)-1,2-oxaborolan-2-ol], which IC50 [1] is on record?
A: The IC50 was 1.45 nM.

Q: And the IC50 (IFNγ)?
A: Its IC50 is 2.3 nM.

Q: And the IC50 (IL-13)?
A: Its IC50 is 2840 nM.

Q: What about the IC50 (IL-4) of the same molecule?
A: The IC50 was 3.24 nM.

Q: Which IC50 [1] does the source give for `CCOc1cc(-c2cc(C(F)(F)F)cc(C3COB(O)C3)n2)ccc1OC` (centres unmarked) [Example 220, 4-(6-(3-ethoxy-4-methoxyphenyl)-4-(trifluoromethyl)pyridin-2-yl)-1,2-oxaborolan-2-ol] here?
A: Its IC50 is 3.29 nM.

Q: And the IC50 (IFNγ)?
A: Its IC50 is 2.37 nM.

Q: What about the IC50 (IL-13) of the same molecule?
A: Its IC50 is 2130 nM.

Q: And the IC50 (IL-4)?
A: Its IC50 is 540 nM.

Q: With `CCOc1cc(C2COB(O)C2)nc(-c2ccc(OC)c(OCC)c2)n1` (centres unmarked) [Example 222, 4-(6-ethoxy-2-(3-ethoxy-4-methoxyphenyl)pyrimidin-4-yl)-1,2-oxaborolan-2-ol] as the molecule, how does the IC50 [1] read?
A: The IC50 was 1.14 nM.

Q: What about the IC50 (IFNγ) of the same molecule?
A: Its IC50 is 1.17 nM.

Q: What about the IC50 (IL-13) of the same molecule?
A: Its IC50 is 2370 nM.

Q: What about the IC50 (IL-4) of the same molecule?
A: The IC50 was 1.44 nM.

Q: What does the source list for `CCCOc1cc(-c2nc(OC)cc(C3COB(O)C3)n2)ccc1OC` (centres unmarked) [Example 224, 4-(6-methoxy-2-(4-methoxy-3-propoxphenyl)pyrimidin-4-yl)-1,2-oxaborolan-2-ol]?
A: IC50 [1]: 2.17 nM; IC50 (IFNγ): 8.12 nM; IC50 (IL-13): 2490 nM; IC50 (IL-4): 8.94 nM

Q: Which results are given for `COc1ccc(-c2cccc(C3COB(O)C3)n2)c(C#N)c1OC1CCCC1` (centres unmarked) [Example 226, 2-(cyclopentyloxy)-6-(6-(2-hydroxy-1,2-oxaborolan-4-yl)pyridin-2-yl)-3-methoxybenzonitrile]?
A: IC50 [1]: 8.72 nM; IC50 (IFNγ): 17.8 nM; IC50 (IL-13): 2520 nM; IC50 (IL-4): 24.7 nM

Q: With `COc1ccc(-c2cc(C3=CB(O)OC3)ccn2)cc1OC` [Example 227, 4-(2-(3,4-dimethoxphenyl)pyridin-4-yl)-1,2-oxaborol-2(5H)-ol] as the molecule, how does the IC50 [1] read?
A: The IC50 was 7.94 nM.

Q: What about the IC50 (IFNγ) of the same molecule?
A: Its IC50 is 9.16 nM.

Q: What about the IC50 (IL-13) of the same molecule?
A: Its IC50 is 2540 nM.

Q: And the IC50 (IL-4)?
A: Its IC50 is 285 nM.

Q: For `CCOc1cc(-c2cncc(C3=CB(O)OC3)c2)ccc1OC` [Example 229, 4-(5-(3-ethoxy-4-methoxyphenyl)pyridin-3-yl)-1,2-oxaborol-2(5H)-ol], which IC50 [1] is on record?
A: The IC50 was 2.64 nM.

Q: What about the IC50 (IFNγ) of the same molecule?
A: Its IC50 is 2.9 nM.

Q: And the IC50 (IL-13)?
A: Its IC50 is 2730 nM.

Q: And the IC50 (IL-4)?
A: The IC50 was 195 nM.

Q: Which results are given for `COc1ccc(-c2cccc(C3COB(O)C3)c2)cc1OC` (centres unmarked) [Example 232, 4-(3′,4′-dimethoxy-[1,1′-biphenyl]-3-yl)-1,2-oxaborolan-2-ol]?
A: IC50 [1]: 4.65 nM; IC50 (IFNγ): 17.9 nM; IC50 (IL-13): 583 nM; IC50 (IL-4): 197 nM

Q: Which IC50 [1] does the source give for `CCOc1cc(-c2cccc(C3COB(O)C3)n2)ccc1OC` (centres unmarked) [Example 233, 4-(6-(3-ethoxy-4-methoxyphenyl)pyridin-2-yl)-1,2-oxaborolan-2-ol] here?
A: Its IC50 is 8.74 nM.

Q: What about the IC50 (IFNγ) of the same molecule?
A: Its IC50 is 2.94 nM.

Q: And the IC50 (IL-13)?
A: The IC50 was 508 nM.

Q: What about the IC50 (IL-4) of the same molecule?
A: The IC50 was 104 nM.
